Patent US7994182B2 (Pecsi Tudomanyegyetem, priority 2003, dated 2011)
Read-outs that look alike come from different tables or passages of the source.

What was measured:
[1] = system: WRL-68 human liver cell line; assay: Protecting effect against hydrogen peroxide induced cell death in WRL-68 cells (MTT cell survival); type: cell-based; conditions: 3 hours; for IC50: read-out: IC50: concentration where the hydrogen peroxide induced cell death was inhibited by 50%; for Emax: read-out: Maximum protection
Description: The protecting effect of 4-quinazolinone derivatives against cell death caused by hydrogen peroxide in WRL-68 human liver cell line.
The human WRL-68 cell line was obtained from American Type Culture Collection (Rockville, Md.). The one layer thick cell lines were cultured in Dulbecco's modified. Eagle medium containing 1% antibiotic-antimycotic solution and 10% fetal calf serum under humid 37° C. air containing 5% CO2. The cells were separated every three days.
The cells were transformed to a 96-well plate with 2.5×10^4 cells/well initial concentration and were cultured overnight in humid 37° C. air containing 5% CO2. The following day 0.3 mM hydrogen peroxide was added to the medium either by itself or in the presence of one of the protecting agents. Three hours later the medium was removed and 0.5% water-soluble mitochondria stain, 3-(4,5-dimethylthiazol-2-yl)-2;5-diphenyl-tetrazolium bromide (MTT^+) was added to the cells. […] The optical density was determined at 550 nm by Anthos Labtech 2010 ELISA Reader (Wien, Austria). In every experiment at least 6 parallel samples were treated and the experiments were repeated three times. Table 1 presents the concentrations (given in μM) where the hydrogen peroxide induced cell death was inhibited by 50%.

[2] = molecular target: T1, poly(ADP-ribose) polymerase enzyme isolated from rat liver (Rattus norvegicus, UniProt P27008); assay: In vitro inhibitory effect on PARP enzyme ([3H]-NAD+ incorporation); type: biochemical; conditions: 1 mM [3H]-NAD+, 15 minutes incubation
T1 construct: The poly(ADP-ribose) polymerase enzyme was isolated from rat liver as described earlier; from tissue; host or cells: rat liver
Description: The In Vitro Inhibitory Effect of 4-quinazolinone Derivatives on PARP Enzyme
The poly(ADP-ribose) polymerase enzyme was isolated from rat liver as described earlier. The putative inhibitory effect of 4-quinazolinone derivatives was examined in this experiment. The activity of the PARP enzyme was determined in 130 μl solution containing 100 mM Tris-HCl buffer (pH 8.0), 10 mM MgCl2, 10% glycerol, 1.5 mM DTT, 1 mM [Adenin-2,8-^3H]-NAD^+ (4,500 cpm/nmol), 10 μg activated DNA and 10 μg histone. With or without the presence of 4-quinazolinone derivatives, the samples were incubated for 15 minutes, then the reactions were brought to stop by the addition of 8% trichloroacetic acid. After the addition of 0.5 mg albumin the samples were allowed to precipitate for 20 minutes on ice, then the insoluble substances were filtered on a glass filter, collected and washed five times with 5% perchloric acid. The protein-bound radioactivity was measured by LS-200 Beckman scintillation counter, the data is presented in μM in Table 2.

[3] = Homo sapiens, WRL68, 0.3 mM hydrogen peroxide

T1 sequence (P27008 whole entry): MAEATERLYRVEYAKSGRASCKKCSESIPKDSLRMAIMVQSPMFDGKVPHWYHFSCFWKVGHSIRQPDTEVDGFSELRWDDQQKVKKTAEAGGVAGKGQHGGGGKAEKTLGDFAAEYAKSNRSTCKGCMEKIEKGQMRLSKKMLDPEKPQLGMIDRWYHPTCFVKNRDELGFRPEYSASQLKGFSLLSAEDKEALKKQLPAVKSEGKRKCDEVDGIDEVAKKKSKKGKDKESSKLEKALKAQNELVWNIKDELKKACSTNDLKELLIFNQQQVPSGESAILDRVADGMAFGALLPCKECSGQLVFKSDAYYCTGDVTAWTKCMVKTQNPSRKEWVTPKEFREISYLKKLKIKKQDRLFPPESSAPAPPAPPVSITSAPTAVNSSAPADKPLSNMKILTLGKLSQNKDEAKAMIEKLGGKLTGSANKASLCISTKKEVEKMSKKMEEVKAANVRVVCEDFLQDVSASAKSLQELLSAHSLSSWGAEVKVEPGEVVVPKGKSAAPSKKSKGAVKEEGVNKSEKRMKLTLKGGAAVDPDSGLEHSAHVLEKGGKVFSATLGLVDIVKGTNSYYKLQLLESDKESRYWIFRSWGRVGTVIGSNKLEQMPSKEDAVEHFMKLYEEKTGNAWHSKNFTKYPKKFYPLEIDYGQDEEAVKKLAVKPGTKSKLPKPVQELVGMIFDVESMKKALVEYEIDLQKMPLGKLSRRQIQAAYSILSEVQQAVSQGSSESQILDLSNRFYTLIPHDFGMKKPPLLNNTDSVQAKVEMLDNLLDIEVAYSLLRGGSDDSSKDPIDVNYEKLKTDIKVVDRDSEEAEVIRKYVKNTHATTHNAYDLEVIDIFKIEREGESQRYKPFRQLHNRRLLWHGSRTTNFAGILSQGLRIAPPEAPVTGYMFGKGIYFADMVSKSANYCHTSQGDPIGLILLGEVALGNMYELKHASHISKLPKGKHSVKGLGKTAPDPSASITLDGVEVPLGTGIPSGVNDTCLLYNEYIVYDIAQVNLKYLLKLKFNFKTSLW

SMILES: CC1(C)C=C(c2nc3ccccc3c(=O)[nH]2)C(C)(C)N1 [Compound 22, 2-(2,2,5,5-Tetramethyl-2,5 dihydro-1H-pyrrol-3-yl)quinazolin-4(3H)-one]
- melting point: 254 to 256 °C

SMILES: CN(C)CCSc1nc2ccccc2c(=O)[nH]1 [Compound 17a]
- IC50 [1, 3]: 0.15 µM
- Emax [1, 3]: 68%
- IC50 [2]: 2 µM

SMILES: CC1(C)C=C(CSc2nc3ccccc3c(=O)[nH]2)C(C)(C)N1 [Compound 13, 2-{[(2,2,5,5-Tetramethyl-2,5-dihydro-1H-pyrrol-3-yl)methyl]thio}quinazolin-4(3H)-one]
- melting point: 150 to 151 °C

SMILES: Cc1nc2ccccc2c(=O)[nH]1 [Compound 2, 2-methylquinazolin-4(3H)one, reference compound]
- IC50 [1, 3]: 4 µM
- Emax [1, 3]: 54%

SMILES: CC1(C)C=C(c2nc3ccccc3c(=O)[nH]2)CC(C)(C)N1 [Compound 24, 2-(2,2,6,6-Tetramethyl-1,2,3,6-tetrahydropyridin-4-yl)quinazolin-4(3H)-one]
- IC50 [1, 3]: 12 µM
- Emax [1, 3]: 50%

SMILES: CC1(C)C=C(c2nc3ccccc3c(=O)[nH]2)CC(C)(C)N1O [Compound 23, 2-(1-Oxyl-2,2,6,6-tetramethyl-1,2,3,6-tetrahydropyridin-4-yl)quinazolin-4(3H)-one]
- IC50 [1, 3]: 13 µM
- Emax [1, 3]: 50%

SMILES: O=c1[nH]c(S)nc2ccccc12 [Compound 3, 2-mercaptoquinazolin-4(3H)one, reference compound]
- IC50 [1, 3]: 70 µM
- Emax [1, 3]: 52%

SMILES: O=c1[nH]c(SCCN2CCCCC2)nc2ccccc12 [Compound 17c, 2-[(2-Piperidin-1-ylethyl)thio]quinazolin-4(3H)-one]
- IC50 [1, 3]: 0.8 µM
- Emax [1, 3]: 62%
- IC50 [2]: 2.6 µM

SMILES: Cc1nc2ccccc2c(=O)n1CC1=CC(C)(C)NC1(C)C [Compound 9, 3-[(2,2,5,5-Tetramethyl-2,5-dihydro-1H-pyrrol-3-yl)methyl]-2-methylquinazolin-4(3H)-one]
- IC50 [1, 3]: 10 µM
- Emax [1, 3]: 15%

SMILES: CC1(C)C=C(c2nc3ccccc3c(=O)[nH]2)C(C)(C)N1O [Compound 21, 2-(1-Oxyl-2,2,5,5-tetramethyl-2,5-dihydro-1H-pyrrol-3-yl)quinazolin-4(3H)-one]
- IC50 [1, 3]: > 100 µM
- Emax [1, 3]: 0%

SMILES: CC1(C)C=C(CSC2=Nc3ccccc3C(=O)C2)CC(C)(C)N1 [Compound 15, 2-{[(2,2,6,6-Tetramethyl-1,2,3,6-tetrahydropyridin-4-yl)methyl]thio}quinolin-4(3H)-one]
- IC50 [1, 3]: 10 µM
- Emax [1, 3]: 61%

SMILES: CC1(C)C=C(CSc2nc3ccccc3c(=O)[nH]2)C(C)(C)N1O [Compound 12, 2-{[(1-Oxyl-2,2,5,5-tetramethyl-2,5-dihydro-1H-pyrrol-3-yl)methyl]thio}quinazolin-4(3H)-one]
- melting point: 138 to 140 °C

SMILES: CN(C)CCCSc1nc2ccccc2c(=O)[nH]1 [Compound 17b, 2-{[3(Dimethylamino)propyl]thio}quinazolin-4(3H)-one]
- IC50 [1, 3]: 4.8 µM
- Emax [1, 3]: 65%
- IC50 [2]: 6 µM

SMILES: Cc1nc2ccccc2c(=O)n1CC1=CC(C)(C)N([O])C1(C)C [Compound 8, 3-[(1-Oxyl-2,2,5,5-tetramethyl-2,5-dihydro-1H-pyrrol-3-yl)methyl]-2-methylqunazolin-4(3H)-one]
- Maximum protection ([1]; 0.3 mM hydrogen peroxide): 0%
- IC50 ([1]; 0.3 mM hydrogen peroxide): > 100 µM

SMILES: CC1(C)CCCC(C)(C)N1CCSc1nc2ccccc2c(=O)[nH]1 [Compound 17d, 2-{[2-(2,2,6,6-Tetramethylpiperidin-1-yl)ethyl]thio}quinazolin-4(3H)-one]
- IC50 [1, 3]: 0.1 µM
- Emax [1, 3]: 69.6%
- IC50 [2]: 1.6 µM
